Tests used:
PLK1 (catalytic domain) = biological target: T1, PLK1 (catalytic domain) (Homo sapiens, UniProt P53350); assay: DiscoverX KinomeScreen competition binding assay
T1 construct: purchased DiscoverX; host or cells: E. coli (BL21-derived, T7 phage display) or HEK-293
Description: (§1) This has been investigated by testing atropisomer A-2 for off-target activity against a panel of ninety-seven kinases distributed across the kinome at a concentration of 3 μM using the DiscoverX KinomeScreen assay. The DiscoverX KinomeScreen assay is a site-directed competition binding assay which measures the binding affinity of a compound to a kinase, by use of a solid supported control compound which can bind or capture the kinases in solution. In the absence of a kinase-inhibitor test compound, all of the kinase will bind to the solid support. If a kinase-inhibitor test compound is added to the assay mix, the amount of kinase binding to the solid support will be reduced, the extent of reduction being dependent on the potency of the test compound as a kinase inhibitor. […] For most assays, kinase-tagged T7 phage strains were grown in parallel in 24-well blocks in an E. coli host derived from the BL21 strain. E. coli were grown to log-phase and infected with T7 phage from a frozen stock (multiplicity of infection=0.4) and incubated with shaking at 32° C. until lysis (90-150 minutes). The lysates were centrifuged (6,000×g) and filtered (0.2 μm) to remove cell debris. The remaining kinases were produced in HEK-293 cells and subsequently tagged with DNA for qPCR detection. Streptavidin-coated magnetic beads were treated with biotinylated small molecule ligands for 30 minutes at room temperature to generate affinity resins for kinase assays. The liganded beads were blocked with excess biotin and washed with blocking buffer (SeaBlock (Pierce), 1% BSA, 0.05% Tween 20, 1 mM DTT) to remove unbound ligand and to reduce non-specific phage binding. […] Test compounds were prepared as 40× stocks in 100% DMSO and directly diluted into the assay. All reactions were performed in polypropylene 384-well plates in a final volume of 0.02 ml. […] The beads were then re-suspended in elution buffer (1×PBS, 0.05% Tween 20, 0.5 μM non-biotinylated affinity ligand) and incubated at room temperature with shaking for 30 minutes. The kinase concentration in the eluates was measured by qPCR. Compounds that bind the kinase active site and directly (sterically) or indirectly (allosterically) prevent kinase binding to the immobilized ligand, will reduce the amount of kinase captured on the solid support. […] The strength of binding of the test molecule to the kinase can be expressed as the percent control (% Ctrl) The compound(s) were screened at 3000 nM concentration, and results for primary screen binding interactions are reported as ‘% Ctrl’, where lower numbers indicate stronger hits in the matrix on the following page(s). [formula] • negative control=DMSO (100% Ctrl) • positive control=control compound (0% Ctrl)

PLK4 (catalytic domain) = biological target: T2, PLK4 (catalytic domain) (Homo sapiens, UniProt O00444); assay: DiscoverX KinomeScreen competition binding assay
T2 construct: purchased DiscoverX; host or cells: E. coli (BL21-derived, T7 phage display) or HEK-293
T2 sequence (O00444 12-265 limits assumed): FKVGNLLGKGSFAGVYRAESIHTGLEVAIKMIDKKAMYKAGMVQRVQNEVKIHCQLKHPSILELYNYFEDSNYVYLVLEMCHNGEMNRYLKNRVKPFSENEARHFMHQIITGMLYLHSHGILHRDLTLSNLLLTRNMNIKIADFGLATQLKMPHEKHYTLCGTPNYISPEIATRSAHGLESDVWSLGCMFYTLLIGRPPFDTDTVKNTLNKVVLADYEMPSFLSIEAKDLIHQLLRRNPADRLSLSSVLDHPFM
Description: as §1

[1] = system: HeLa cells engineered to inducibly express wild-type KRAS; assay: Wild-type versus KRAS HeLa cell viability (Cell Titre Blue); type: cell-based; conditions: Homo sapiens, wild-type KRAS transgene, 72 hours, read-out: WT GI50
Description: Thus, atropisomer A-2 was tested on HeLa cells engineered to inducibly express wild-type or oncogenic […] transgenes using the FLP-in/T-Rex system (Invitrogen). Cells were plated, and then treated with or without doxycycline to induce transgene expression, and then treated with serially-diluted atropisomer A-2. After 72 hours of incubation, cell viability was assessed using the Cell Titre Blue reagent (Promega) and a BMG Pherastar plate reader. The effect of PBD inhibition on cell viability with either wild-type or oncogenic G12V KRAS was assessed using GraphPad Prism.

U87MG = assay: Mitotic index (phospho-histone H3) assay; type: cell-based; conditions: Homo sapiens, U-87 MG; % mitotic cells (pH3-positive), 24 hours
Text: (§2) Inhibiting the ability of PLK1 and PLK4 to bind to their partners through their PBDs is known to cause cells to arrest in mitosis. Experimentally, this can be measured by assessing the number of cells which are in mitosis at a certain time after treatment with a test compound by immunofluorescent detection of phosphorylated Histone H3 (pH3), a mark which is only present in mitotic cells. PLK1/4-PBD inhibitors are expected to cause a dose-dependent increase in pH3-positive cells, which is reported as Mitotic Index (MI)—the percentage of cells which, at a given time, are positive for this mitotic mark. Cells were plated at 10 000/well in 96-well plates and incubated overnight. The following day atropisomer A-2 stocks in DMSO were diluted in medium then added to cells with a maximum final DMSO concentration on cells of 0.2%. Cells were incubated with the compound for 24 hours then fixed in 3.7% formaldeyde. Cells were permeabilised with 0.1% Triton X-100 then incubated with anti-phospho-histone H3 (Ser10) antibody (Abcam ab5176). The cells were washed with PBS then incubated with AlexaFluor 488 labelled goat anti-rabbit IgG (Invitrogen A11034) in the presence of 4 ug/ml Hoechst 33342 (Invitrogen H3570). Cells were washed in PBS then imaged on an Arrayscan VTi HCS instrument (Thermo Fisher) using the Target Activation V4 Bioapplication. […]

HeLa = assay: Mitotic index (phospho-histone H3) assay; type: cell-based; conditions: Homo sapiens, % mitotic cells (pH3-positive), 24 hours
Text: as §2

U87MG cells = assay: Mitotic phenotype classification; type: cell-based; conditions: 0.03 μM, 24 hours
Description: Distinct mitotic phenotypes are induced following inhibition of PLK1 and PLK4 in cells. […] Centriole assembly is controlled by PLK4, with inhibitors inducing a multipolar spindle phenotype due to centrosome defects which results in abnormal cyokinesis (Wong et al., 2015. Science 348(6239); 1155-1160). Cells were plated at 10 000/well in 96-well plates and incubated overnight. The following day atropisomer A-2 stocks in DMSO were diluted in medium then added to cells with a maximum final DMSO concentration on cells of 0.2%. Cells were incubated with the compound for 24 hours then fixed in 3.7% formaldeyde. Cells were permeabilised with 0.1% Triton X-100 then incubated with anti-phospho-histone H3 (Ser10) antibody (Abcam ab5176). The cells were washed with PBS then incubated with AlexaFluor 488 labelled goat anti-rabbit IgG (Invitrogen A11034) in the presence of 4 ug/ml Hoechst 33342 (Invitrogen H3570). Cells were washed in PBS then imaged on an Arrayscan VTi HCS instrument (Thermo Fisher) using the Target Activation V4 Bioapplication. A user-defined threshold was applied to identify mitotic cells based on the intensity of phospho-histone H3 staining. In a separate study, following the above protocol but using single compound concentrations of 0.03 μM for each of atropisomer A-1 and atropisomer A-2, the frequency of observed mitotic phenotypes in U87MG cells was manually assessed and classified into the following phenotypes: non-congressed chromosomes, multipolar spindles/abnormal cytokinesis, monopolar spindles, normal prometaphase, normal metaphase for each of A-1 and A-2.

[2] = 3 μM (3000 nM), lower = stronger binding, read-out: % Control

T1 sequence (P53350 53-305 limits assumed): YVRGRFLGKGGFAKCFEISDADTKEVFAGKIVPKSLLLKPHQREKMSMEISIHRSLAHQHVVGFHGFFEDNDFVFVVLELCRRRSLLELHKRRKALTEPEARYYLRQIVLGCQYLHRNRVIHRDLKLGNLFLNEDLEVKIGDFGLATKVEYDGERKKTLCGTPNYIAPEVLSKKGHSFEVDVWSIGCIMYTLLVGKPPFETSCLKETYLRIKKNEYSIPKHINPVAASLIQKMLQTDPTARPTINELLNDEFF

Row | Structure (SMILES) | remaining binding at 3 µM (PLK1 (catalytic domain); [2]) [%] | % Ctrl @ 3 μM (PLK1 (catalytic domain); PLK1, screened at 3000 nM) [% Ctrl] | remaining binding at 3 µM (PLK4 (catalytic domain); [2]) [%] | % Ctrl @ 3 μM (PLK4 (catalytic domain); PLK4, screened at 3000 nM) [% Ctrl] | GI50 [1] [nM] | EC50 (U87MG) [nM] | EC50 (HeLa) [nM] | cells with abnormal cytokinesis (U87MG cells) [%] | cells with non-congressed chromosomes (U87MG cells) | cells with normal mitotic phenotype (U87MG cells) [%]
1 | CN(C)CCNC(=O)c1ccc(-c2ccc(-c3ccc(Cl)cc3)n2-c2ccccc2C(F)(F)F)cc1 (single isomer, unassigned) [Atropisomer A-2] | 97 | 97 | 100 | 100 | 3.01 | 90 | 30 | – | – | –
2 | CN(C)CCNC(=O)c1ccc(-c2ccc(-c3ccc(Cl)cc3)n2-c2ccccc2C(F)(F)F)cc1 (single isomer, unassigned; atropisomer a) [Atropisomer A-1] | – | – | – | – | – | – | – | 24 | No evidence | 76

From patent publication US12637424B2, “Pharmaceutical salt of an arylpyrrole derivative” (SENTINEL ONCOLOGY LIMITED, priority 2020, dated 2026)
